Assay results from patent publication US20240398767A1, “INHIBITORS OF THE MTDH-SND1 PROTEIN COMPLEX FOR CANCER THERAPY” (The Trustees of Princeton University, priority 2021, published 2024).

Key:
[1] = biological target: T1, MTDH-SND1 interaction: SND1-NLuc (human SND1 16-339aa fused via 3x GGGS linker to N-terminal firefly luciferase 1-416aa) + CLuc-MTDH (C-terminal firefly luciferase 398-550aa fused via 3x GGGS linker to human MTDH 386-407aa) (Homo sapiens, UniProt Q7KZF4); assay: Cell-free split-luciferase assay of MTDH-SND1 interaction disruption, multiple doses (FIG. 3E); format: binding; conditions: cell free (HEK293T lysates), curves fit, read-out: MTDH-SND1 interaction (split-luciferase) SND1-NLuc + CLuc-MTDH interaction domains IC50
T1 construct: CLuc (398-550)-GGGS linker-MTDH (386-407) with HA tag; expressed in HEK293T; cell-free split-luciferase complementation

[2] = biological target: T2, MTDH-SND1 interaction (Homo sapiens, UniProt Q7KZF4); assay: Cell-free split-luciferase (Split-luc) assay, SND1-NLuc + CLuc-MTDH; format: biochemical; conditions: for IC50: split-luc assay in various concentrations; for split-luc activity: 50 μM peptide
T2 construct: made in house; host or cells: HEK293T cells, transient transfection of pcDNA3.1 plasmids; crude cleared lysates, each fusion expressed separately and the lysates pre-mixed
Excerpt: To generate a luciferase-based screening system, firefly luciferase was split into N- and C-terminals according to previous studies^21-23. Both N- and C-terminal domains alone have almost undetectable luciferase activity (FIG. 10A). Next, the two fragments were fused to SND1 and MTDH interaction domains respectively to generate SND1-NLuc and CLuc-MTDH (Split-luc) (FIG. 10A, left, and Table 3). […] However, when SND1-NLuc+CLuc-MTDH were co-expressed, N- and C-terminal domains of the luciferase fragments were brought close to each other due to the interaction between SND1 and MTDH, and substantial luciferase activity was reconstituted (FIG. 3A, left and FIG. 10A).
(§1) Luciferase-based screening. Seed HEK293T cells on 3×15 cm dish at 18-24 hr before transfection with 7-8×10^6 cells per dish targeting 70-80% confluence when start transfection. 20 μg of pCDNA3.1-SND1-NLuc, pCDNA3.1-CLuc-MTDH, or 2 μg of pCDNA3.1-NLuc-CLuc plasmids that described above were transfected to each dish. 72 hr after transfection the cells were lysed with 5 ml of luciferase lysis buffer (2 mM EDTA, 20 mM DTT, 10% glycerol, 1% Triton X-100, 25 mM Tris base, adjusted to pH7.8 with H3PO4) at 4° C. for 20 min. The protein lysates were centrifuged at 13,000 rpm for 10 min, and the supernatant were collected.
For small chemical compound screening, white, flat-bottom, solid 384-well plates were used. Compounds were added into each well as 0.1 μl of 10 mM DMSO solution (or same amount of DMSO, serve as control). The first and last columns were free, and MTDH wild type (PNSDWNAPAEEWGNW) or mutant (PNSDANAPAEEAGNW) peptides were added as positive and negative controls right before screening. Same amount of MTDH-CLuc and SND1-NLuc were pre-mixed at 4° C. for 30 min to generate split-luc. 5 μl of split- or linked-luc was added into each well. 15 μl of luciferase assay buffer (25 mM Glycylglycine pH 7.8, 15 mM K3PO4 pH 7.8, 15 mM MgSO4, 4 mM EGTA, 2 mM ATP added just before use, 10 mM DTT added just before use and 1 mM D-Luciferin added just before use) was then added into each well to get a 20 μl reaction system with 50 μM of compounds (peptides) in each well. The plates were incubated at 4° C. for 1 hr and luciferase activity at each well was measured.
The inhibitory efficiency of each compound was calculated as following: (signal at DMSO well−signal at compound well)/signal at DMSO well. MTDH wild type or mutant peptide in each plate was served as positive and negative controls to monitor the data quality of each plate.
T2 sequence (Q7KZF4 with tags, fused parts or gaps): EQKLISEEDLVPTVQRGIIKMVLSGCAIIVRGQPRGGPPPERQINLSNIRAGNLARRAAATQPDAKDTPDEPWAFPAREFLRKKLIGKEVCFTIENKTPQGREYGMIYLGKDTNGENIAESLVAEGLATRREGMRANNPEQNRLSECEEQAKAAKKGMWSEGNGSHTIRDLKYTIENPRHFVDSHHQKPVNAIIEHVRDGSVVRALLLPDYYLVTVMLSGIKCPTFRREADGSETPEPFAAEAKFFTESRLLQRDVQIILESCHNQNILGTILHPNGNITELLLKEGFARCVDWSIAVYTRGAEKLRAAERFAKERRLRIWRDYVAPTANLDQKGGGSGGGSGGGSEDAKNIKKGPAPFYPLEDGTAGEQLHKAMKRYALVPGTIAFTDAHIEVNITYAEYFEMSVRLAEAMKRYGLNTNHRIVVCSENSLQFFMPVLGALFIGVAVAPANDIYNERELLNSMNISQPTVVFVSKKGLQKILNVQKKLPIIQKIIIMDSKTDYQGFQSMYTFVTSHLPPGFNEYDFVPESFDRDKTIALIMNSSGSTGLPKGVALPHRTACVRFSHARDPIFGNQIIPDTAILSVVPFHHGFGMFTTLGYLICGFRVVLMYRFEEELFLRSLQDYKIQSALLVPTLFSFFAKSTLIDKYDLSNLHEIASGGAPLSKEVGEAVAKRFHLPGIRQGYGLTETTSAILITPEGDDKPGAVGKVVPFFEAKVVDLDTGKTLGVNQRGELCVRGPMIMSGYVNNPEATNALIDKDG

[3] = biological target: T3, Linked-luc (NLuc and CLuc of firefly luciferase fused together) (Photinus pyralis, UniProt P08659, INS416[…]); assay: Linked-luciferase (Linked-luc) counter screen, cell free; format: biochemical; conditions: 50 μM peptide
T3 construct: made in house; host or cells: HEK293T cells, transient transfection of pcDNA3.1-NLuc-CLuc; crude cleared lysate
Excerpt: The interaction between SND1-NLuc and CLuc-MTDH was also validated with co-immunoprecipitation (Co-IP) experiments (FIG. 10B). In the presence of the compounds (inhibitors) that block MTDH-SND1 interaction, the reconstitution of luciferase activity was expected to be reduced (FIG. 3A). Meanwhile, considering the possibility that compounds capable of directly inhibiting the enzymatic activity of luciferase could also result in lower luciferase signal without any blocking effect on MTDH-SND1 interaction, Linked-luc that directly fuse NLuc and CLuc together was generated to be used in counter screening (FIG. 3A, right, and Table 3).
as §1, with “The protein lysates were centrifuged at 13,000 rpm for 10 min, and the supernatant were collected.” left out
For small chemical compound screening, white, flat-bottom, solid 384-well plates were used. […] The plates were incubated at 4° C. for 1 hr and luciferase activity at each well was measured.

[4] = tested on: 4TO7 lung metastases; assay: Established 4TO7 lung macrometastases; format: in vivo, Balb/C females
Procedure: For FIGS. 7A-7D, 2 k 4TO7 cells were injected into Balb/C females. 2 weeks after the injections, the mice were randomized based on lung metastasis that indicated by BLI, and were divided into four groups followed by vehicle, paclitaxel (Pac), and C26-A6 treatment alone or in combination. For Pac, the mice were treated with 20 mg/kg of Pac twice per week for the first two week and then once per week after that, For C26-A6, the mice were treated with 15 mg/kg of C26-A6 5 days per week. n=6 mice per group. Data represent mean±SEM.
FIG. 7A, Representative mice right before the treatment (week 2) and at week 10 are shown.
FIG. 7B, The BLI signal was quantified at week 2. Significance determined by one-way ANOVA analysis with Dunnett's test for multiple comparisons.
FIG. 7C, The metastasis progression of each individual is shown.
FIG. 7D, Survival rate in each group was analyzed. Significance determined by two-sided Log-rank test.
Lastly, to mimic the clinical scenario of adjuvant chemotherapy following surgical removal of the primary tumors, SCP28 mammary tumors were removed when they reached 5 mm in diameter, the mice were then randomly separated into four groups and subjected to the different treatment regimens as above. […] The mice were then treated with vehicle or paclitaxel and C26-A6 alone or in combination, and the metastasis progression was monitored by BLL.

[5] = biological target: T4, MTDH-SND1 interaction (Homo sapiens, UniProt Q7KZF4); assay: Co-immunoprecipitation (Co-IP) in SCP28 lysates with anti-MTDH antibody, Western blot for SND1; format: binding; conditions: 500 μM, SCP28 lysate
T4 construct: endogenous in cells; host or cells: SCP28 cells (lysate)
T4 sequence (Q7KZF4 2-910 limits assumed): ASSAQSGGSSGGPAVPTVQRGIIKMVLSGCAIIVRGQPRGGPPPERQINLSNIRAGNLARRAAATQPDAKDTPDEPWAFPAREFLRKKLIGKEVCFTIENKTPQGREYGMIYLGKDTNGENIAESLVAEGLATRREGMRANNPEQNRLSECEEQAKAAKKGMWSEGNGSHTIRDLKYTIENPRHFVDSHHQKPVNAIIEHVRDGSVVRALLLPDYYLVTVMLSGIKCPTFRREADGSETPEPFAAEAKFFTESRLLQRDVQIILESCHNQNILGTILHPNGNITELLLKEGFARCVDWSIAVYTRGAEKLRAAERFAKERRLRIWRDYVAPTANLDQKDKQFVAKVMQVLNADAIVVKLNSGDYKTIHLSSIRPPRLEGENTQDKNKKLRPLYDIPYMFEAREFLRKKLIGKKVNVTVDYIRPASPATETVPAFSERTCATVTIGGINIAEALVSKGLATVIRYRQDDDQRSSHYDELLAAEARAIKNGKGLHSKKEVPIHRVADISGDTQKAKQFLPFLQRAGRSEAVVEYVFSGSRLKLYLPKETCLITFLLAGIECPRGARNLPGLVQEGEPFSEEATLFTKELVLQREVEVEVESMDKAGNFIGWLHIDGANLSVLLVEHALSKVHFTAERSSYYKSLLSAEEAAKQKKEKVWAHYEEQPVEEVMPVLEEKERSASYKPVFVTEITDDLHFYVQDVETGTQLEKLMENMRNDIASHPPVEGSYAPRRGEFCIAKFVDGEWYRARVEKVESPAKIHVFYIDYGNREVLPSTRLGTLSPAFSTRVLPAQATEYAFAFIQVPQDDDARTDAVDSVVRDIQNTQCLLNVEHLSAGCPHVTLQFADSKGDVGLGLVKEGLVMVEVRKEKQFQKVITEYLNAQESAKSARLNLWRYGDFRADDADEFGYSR
Procedure: FIG. 3F, SCP28 cells grown confluent in each 10-cm dish were lysed with 1 ml IP lysis buffer. 500 μM of the compounds were added into each 1 ml of the samples and IP lysis buffer with 2 μg of anti-MTDH antibody. Western blot was then performed to detect SND1 that binds to MTDH.
FIG. 10E, Schematic diagram of Co-IP based confirmation of MTDH-SND1 inhibitory compounds (left). SCP28 cells were lysed for IP assay.2 μg of MTDH antibody together with 500 μM of MTDH wild type (Pep-WT) or mutant (Pep-MT) peptides were added into each 1 ml of samples. Red star indicates wild type MTDH peptide competing off SND1 that binds to MTDH.
Co-immunoprecipitation assay (Co-IP), which is a commonly used standard test to determine protein-protein interaction, was next employed to validate the candidates. Lysates of breast cancer cell line SCP28, a single cell-derived subline from the MDA-MB-231 TNBC cell line^25, was immunoprecipitated with anti-MTDH antibody alone or together with inhibitors (FIG. 3F and FIG. 10E). The samples were then incubated with Protein-A/G beads to pull down MTDH, followed by Western blot analysis to detect SND1. […] Using multiple screening and validation platforms, two classes of compounds, C26s and C32s, were obtained that inhibit MTDH-SND1 interaction.
Immunoprecipitation (IP) and western blotting (WB) analysis. For IP experiment, samples were prepared as previously described^32. 100 μl of the supernatant was transferred to a new tube as input, and the rest was incubated with 2 μg of IgG, anti-Myc (Santa Cruz, SC-40), or anti-MTDH (ThermoFisher, 40-6500) (as indicated in each experiment) overnight at 4° C. (small chemical compounds may be added at this step as indicated in each experiment). The rest standard IP procedures were performed as previously noted^32. […]

T1 sequence (Q7KZF4 with tags, fused parts or gaps): as the sequence (Q7KZF4 with tags, fused parts or gaps) above
T1 sequence (Q86UE4 386-407 partner): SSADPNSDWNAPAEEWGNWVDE
T3 sequence (P08659 with tags, fused parts or gaps INS416[withheld]): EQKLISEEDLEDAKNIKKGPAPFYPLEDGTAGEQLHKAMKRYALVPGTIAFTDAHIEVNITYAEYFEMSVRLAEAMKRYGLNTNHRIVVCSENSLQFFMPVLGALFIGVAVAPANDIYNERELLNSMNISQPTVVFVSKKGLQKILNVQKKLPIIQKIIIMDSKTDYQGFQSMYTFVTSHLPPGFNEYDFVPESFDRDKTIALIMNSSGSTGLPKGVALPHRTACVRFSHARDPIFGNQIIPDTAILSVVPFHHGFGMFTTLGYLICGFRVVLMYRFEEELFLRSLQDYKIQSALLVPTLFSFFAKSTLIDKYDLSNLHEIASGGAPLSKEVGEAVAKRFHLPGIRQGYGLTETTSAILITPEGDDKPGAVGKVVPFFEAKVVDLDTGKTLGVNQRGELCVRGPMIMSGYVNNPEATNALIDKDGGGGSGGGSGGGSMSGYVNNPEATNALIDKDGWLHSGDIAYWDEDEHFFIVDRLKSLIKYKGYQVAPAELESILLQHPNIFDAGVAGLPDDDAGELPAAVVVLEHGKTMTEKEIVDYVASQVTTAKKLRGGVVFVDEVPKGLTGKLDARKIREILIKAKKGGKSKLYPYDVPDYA

## COc1ccc(Cl)cc1S(=O)(=O)Nc1cccn2c(C3CCC3)nnc12 [Compound C26]
[1]
  IC50: 14.9 µM

## COc1ccc(NC(=O)N2CCc3c(C(=O)NC4CCN(C)CC4)cccc32)cc1 [Analog C32]
[2]
  IC50: < 20 µM

## COc1ccc(NC(=O)N2CCc3c(C(=O)NC4CCN(C5CC5)CC4)cccc32)cc1 [Compound C32-A2]
[1]
  IC50: 14.5 µM

## COc1ccc(NC(=O)N2CCc3c(C(=O)NC4CCN(C)CC4)cccc32)cc1 [Compound C32]
[1]
  IC50: 51.1 µM

## COc1ccc(Cl)cc1S(=O)(=O)Nc1cccn2c(C3CCC3)nnc12 [Analog C26]
[2]
  IC50: < 20 µM

## CNC(=O)c1cccc2c1CCN2C(=O)Nc1ccc(OC)cc1 [Compound C32-A4]
[1]
  IC50: 4.9 µM

## COc1ccc(Cl)cc1S(=O)(=O)Nc1cccn2ncnc12 [Compound C26-A2]
[1]
  IC50: 9.4 µM

## PNSDANAPAEEAGNW [MTDH-MT, reference compound]
[2]
  split-luc activity: but not the mutant significantly inhibited split-luc activity
[3]
  linked-luc activity: not affected

## CC(=O)O[C@H]1C(=O)[C@@]2(C)[C@H]([C@H](OC(=O)c3ccccc3)[C@]3(O)C[C@H](OC(=O)[C@H](O)[C@@H](NC(=O)c4ccccc4)c4ccccc4)C(C)=C1C3(C)C)[C@]1(OC(C)=O)CO[C@@H]1C[C@@H]2O [paclitaxel, reference compound]
[4]; Pac 20 mg/kg, C26-A6 15 mg/kg 5 days per week
  metastatic growth (BLI): slowed down metastatic growth
[4]; six mice per group
  metastasis shrinkage: did not result in metastasis shrinkage

## PNSDWNAPAEEWGNW [MTDH-WT, reference compound]
[5]
  MTDH-SND1 interaction (SND1 that binds to MTDH, Co-IP): blocks MTDH-SND1 interaction
[2]
  split-luc activity: significantly inhibited split-luc activity
[3]
  linked-luc activity: not affected

## COc1ccc(Cl)cc1S(=O)(=O)Nc1cccn2nc(C)nc12 [Compound C26-A6]
[1]
  IC50: 2.4 µM

## COc1ccc(Cl)cc1S(=O)(=O)Nc1cccn2cnnc12 [Compound C26-A1]
[1]
  IC50: 8.6 µM

## COc1ccc(NC(=O)N2CCc3c(C(=O)N(C)C)cccc32)cc1 [Compound C32-A5]
[1]
  IC50: 4.6 µM
